Read-outs that look alike come from different tables or passages of the source.
Key:
[1] = molecular target: Ba/F3 cells with EGFR Δ19del/T790M/C797S mutation gene stably overexpressed (Homo sapiens, UniProt P00533, T790M/C797S, cells depend on it, form not given); assay: Ba/F3-Δ19del/T790M/C797S cell proliferation assay (CellTiter Glo, 72 hours); assay type: cell-based; settings: Table 2, read-out: EGFR Δ19del/T790M/C797S IC50
How it was run: (§1)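 Ba/F3 cells stably overexpressing wild-type EGFR or EGFR Δ19del/T790M/C797S were seeded at 2000 cells/well and incubated 72 h with compound. Viability was read by CellTiter-Glo luminescence, and IC50 came from a four-parameter logistic fit of signal against log concentration.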

A431 = A431 cell proliferation assay (CellTiter Glo, 72 hours); assay type: cell-based; settings: cell proliferation, A431, 72 hours, Table 2, read-out: A431 IC50
How it was run: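 A431 cells (2000/well) exposed 72 h to compound at 1000 nM down to 0.2 nM in 3-fold steps, 0.1% DMSO (0.5% for some series). Viability by CellTiter-Glo luminescence; IC50 by four-parameter nonlinear regression.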

EGFRΔ19del/T790M/C797S = EGFRΔ19del/T790M/C797S (Homo sapiens, UniProt P00533, T790M/C797S, form not given); assay: EGFR Δ19del/T790M/C797S kinase test (mobility variation analysis, Caliper EZ Reader); assay type: biochemical; settings: kinase enzymatic activity, Table 1
How it was run: (§2)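 Kinase pre-incubated with compound 10 minutes at room temperature, then ATP plus peptide substrate added; substrate conversion read by mobility shift after stop solution. Percent inhibition normalized to no-compound and no-enzyme controls; IC50 from variable-slope log(inhibitor) fit.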

IGF1R = IGF1R (Homo sapiens, UniProt P08069); assay: IGF1R kinase test (mobility variation analysis, Caliper EZ Reader); assay type: biochemical; settings: kinase enzymatic activity, Table 1; read-out: EGFR IGF1R IC50
How it was run: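 Kinase preincubated 10 min at room temperature with compound (10-point 3-fold series, top 3000 nM), then ATP and substrate added and reacted at room temperature. Substrate conversion read by mobility-shift (Caliper EZ Reader); % inhibition vs no-enzyme and no-compound controls fitted to variable-slope curve for IC50.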

[2] = molecular target: Ba/F3-EGFR wild-type cell line (Homo sapiens, UniProt P00533); assay: Ba/F3-EGFR wild-type cell proliferation assay (CellTiter Glo, 72 hours); assay type: cell-based; settings: Table 2, read-out: EGFR WT IC50
How it was run: as §1

EGFR WT = EGFR WT (Homo sapiens, UniProt P00533); assay: EGFR WT kinase test (mobility variation analysis, Caliper EZ Reader); assay type: biochemical; settings: kinase enzymatic activity, Table 1
How it was run: as §2

EGFRΔ19del/T790M/C797S, sequence (P00533 with tags, fused parts or gaps DEL746-750/T790M/C797S, form open): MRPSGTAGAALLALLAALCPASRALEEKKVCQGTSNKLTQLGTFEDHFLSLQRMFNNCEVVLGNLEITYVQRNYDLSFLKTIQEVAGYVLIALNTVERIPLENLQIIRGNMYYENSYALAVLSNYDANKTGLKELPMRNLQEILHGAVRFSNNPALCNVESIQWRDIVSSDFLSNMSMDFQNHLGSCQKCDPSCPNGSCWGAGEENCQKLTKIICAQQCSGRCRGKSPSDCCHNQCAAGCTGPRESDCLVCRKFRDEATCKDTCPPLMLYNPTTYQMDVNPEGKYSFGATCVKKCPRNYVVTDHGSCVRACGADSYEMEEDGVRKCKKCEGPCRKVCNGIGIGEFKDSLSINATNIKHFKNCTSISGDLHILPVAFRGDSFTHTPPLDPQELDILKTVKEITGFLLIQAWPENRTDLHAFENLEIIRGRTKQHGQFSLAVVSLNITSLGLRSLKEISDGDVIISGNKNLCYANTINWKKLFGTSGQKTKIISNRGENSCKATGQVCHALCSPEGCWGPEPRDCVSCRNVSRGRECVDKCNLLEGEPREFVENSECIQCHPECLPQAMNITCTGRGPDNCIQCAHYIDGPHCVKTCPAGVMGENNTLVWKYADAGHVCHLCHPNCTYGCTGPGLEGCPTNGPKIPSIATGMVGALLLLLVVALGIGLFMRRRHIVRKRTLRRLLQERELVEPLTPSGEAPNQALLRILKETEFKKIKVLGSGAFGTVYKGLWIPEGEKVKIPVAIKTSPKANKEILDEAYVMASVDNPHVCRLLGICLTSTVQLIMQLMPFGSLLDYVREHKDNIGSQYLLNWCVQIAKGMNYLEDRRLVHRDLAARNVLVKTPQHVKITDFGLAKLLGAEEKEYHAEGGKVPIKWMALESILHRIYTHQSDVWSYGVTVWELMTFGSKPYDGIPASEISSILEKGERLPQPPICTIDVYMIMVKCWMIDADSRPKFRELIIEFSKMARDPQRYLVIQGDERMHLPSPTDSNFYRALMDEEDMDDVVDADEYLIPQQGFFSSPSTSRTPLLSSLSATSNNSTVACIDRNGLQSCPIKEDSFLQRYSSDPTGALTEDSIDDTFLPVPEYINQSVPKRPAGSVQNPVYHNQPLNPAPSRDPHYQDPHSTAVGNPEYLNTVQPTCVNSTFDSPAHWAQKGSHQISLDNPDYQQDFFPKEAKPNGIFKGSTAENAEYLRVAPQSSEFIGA
Ba/F3 cells with EGFR Δ19del/T790M/C797S mutation gene stably overexpressed, sequence (P00533 with tags, fused parts or gaps DEL746-750/T790M/C797S, form open): as above
EGFR WT, sequence (P00533 25-1210): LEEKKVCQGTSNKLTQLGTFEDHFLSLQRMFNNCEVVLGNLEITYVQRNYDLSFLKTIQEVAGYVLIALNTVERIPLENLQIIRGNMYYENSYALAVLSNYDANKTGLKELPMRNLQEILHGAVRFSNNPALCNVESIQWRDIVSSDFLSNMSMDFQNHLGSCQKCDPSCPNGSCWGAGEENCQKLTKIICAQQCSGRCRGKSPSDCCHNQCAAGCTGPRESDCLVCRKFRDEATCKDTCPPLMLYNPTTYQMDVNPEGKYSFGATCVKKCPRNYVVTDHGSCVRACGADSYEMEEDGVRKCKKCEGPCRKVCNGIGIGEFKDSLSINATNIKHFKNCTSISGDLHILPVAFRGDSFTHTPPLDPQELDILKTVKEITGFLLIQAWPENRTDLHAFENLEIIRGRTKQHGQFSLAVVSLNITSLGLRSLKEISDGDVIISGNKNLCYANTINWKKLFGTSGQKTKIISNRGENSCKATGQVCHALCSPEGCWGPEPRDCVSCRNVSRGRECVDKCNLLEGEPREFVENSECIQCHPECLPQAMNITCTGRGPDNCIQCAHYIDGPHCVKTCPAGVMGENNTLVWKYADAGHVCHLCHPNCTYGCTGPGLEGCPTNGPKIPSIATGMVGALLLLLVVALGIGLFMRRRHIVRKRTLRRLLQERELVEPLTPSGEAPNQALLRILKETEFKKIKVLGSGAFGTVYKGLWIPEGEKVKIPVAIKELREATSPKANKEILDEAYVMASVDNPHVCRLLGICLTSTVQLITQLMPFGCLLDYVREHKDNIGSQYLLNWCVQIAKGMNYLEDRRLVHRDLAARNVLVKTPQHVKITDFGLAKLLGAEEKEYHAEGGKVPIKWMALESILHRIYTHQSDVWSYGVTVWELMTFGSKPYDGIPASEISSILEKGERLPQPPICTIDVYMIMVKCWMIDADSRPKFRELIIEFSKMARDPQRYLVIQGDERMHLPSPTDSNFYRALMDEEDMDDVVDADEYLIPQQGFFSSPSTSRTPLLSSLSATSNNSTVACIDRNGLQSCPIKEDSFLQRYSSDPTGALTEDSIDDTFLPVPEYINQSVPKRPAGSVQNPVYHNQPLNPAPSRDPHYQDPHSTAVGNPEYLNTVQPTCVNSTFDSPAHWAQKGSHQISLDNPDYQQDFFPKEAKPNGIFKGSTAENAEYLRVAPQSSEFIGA
IGF1R, sequence (P08069 31-1367, species assumed): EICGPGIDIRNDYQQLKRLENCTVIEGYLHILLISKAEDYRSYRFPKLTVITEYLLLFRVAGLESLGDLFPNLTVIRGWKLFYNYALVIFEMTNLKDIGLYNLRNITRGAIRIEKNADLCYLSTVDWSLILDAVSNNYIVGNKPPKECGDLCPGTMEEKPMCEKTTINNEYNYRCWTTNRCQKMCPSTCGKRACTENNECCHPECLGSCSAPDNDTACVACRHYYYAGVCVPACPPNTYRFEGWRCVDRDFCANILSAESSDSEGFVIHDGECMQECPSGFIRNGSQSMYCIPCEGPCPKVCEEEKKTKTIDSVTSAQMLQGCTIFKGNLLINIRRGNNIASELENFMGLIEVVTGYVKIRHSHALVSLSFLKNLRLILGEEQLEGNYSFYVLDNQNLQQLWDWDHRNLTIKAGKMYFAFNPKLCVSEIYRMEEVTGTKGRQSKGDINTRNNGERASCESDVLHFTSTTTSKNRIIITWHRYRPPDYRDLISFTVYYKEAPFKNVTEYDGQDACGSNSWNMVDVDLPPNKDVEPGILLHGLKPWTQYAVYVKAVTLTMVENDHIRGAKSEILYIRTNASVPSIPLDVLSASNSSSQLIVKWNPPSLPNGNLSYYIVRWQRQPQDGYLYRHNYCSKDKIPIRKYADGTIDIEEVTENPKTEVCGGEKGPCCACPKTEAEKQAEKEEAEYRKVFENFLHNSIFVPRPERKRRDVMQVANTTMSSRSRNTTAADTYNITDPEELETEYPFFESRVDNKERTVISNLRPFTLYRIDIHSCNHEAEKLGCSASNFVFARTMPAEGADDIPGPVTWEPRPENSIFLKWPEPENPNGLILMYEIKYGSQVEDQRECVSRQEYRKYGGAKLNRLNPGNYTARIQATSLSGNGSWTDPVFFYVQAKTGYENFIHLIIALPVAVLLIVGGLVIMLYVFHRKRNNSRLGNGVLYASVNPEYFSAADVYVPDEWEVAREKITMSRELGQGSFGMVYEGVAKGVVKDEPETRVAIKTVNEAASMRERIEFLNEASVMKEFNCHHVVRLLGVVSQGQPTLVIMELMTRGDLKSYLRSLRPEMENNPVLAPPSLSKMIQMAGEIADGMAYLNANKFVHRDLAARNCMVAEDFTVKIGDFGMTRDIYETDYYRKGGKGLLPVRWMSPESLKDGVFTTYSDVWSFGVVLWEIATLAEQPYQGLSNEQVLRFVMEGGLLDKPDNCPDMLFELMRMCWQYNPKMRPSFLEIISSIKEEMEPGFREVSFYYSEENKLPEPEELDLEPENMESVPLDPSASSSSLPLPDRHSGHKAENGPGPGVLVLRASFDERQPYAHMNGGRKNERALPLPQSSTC

| Compound | GI50 [1] | IC50 (A431; Homo sapiens, A-431, 72 h) | IC50 (EGFRΔ19del/T790M/C797S) | IC50 (IGF1R) | GI50 [2] | IC50 (EGFR WT) | IC50 (A431) |
| --- | --- | --- | --- | --- | --- | --- | --- |
| COc1cnn(-c2ccc(Nc3nc(Nc4cc(OC)c(N5CCOCC5)cc4C4CC4)ncc3Br)c(P(C)(C)=O)c2)c1 [Compound K-026, (2-((5-Bromo-2-((2-cyclopropyl-5-methoxy-4-morpholinophenyl)amino)pyrimidin-4-yl)amino)-5-(4-methoxy-1H-pyrazol-1-yl)phenyl)dimethylphosphine oxide] | 17.3 nM | > 10000 nM | 0.6 nM | 413 nM | 946 nM | 188 nM | – |
| CCc1cc(Nc2ncc(Br)c(Nc3ccc(-c4ccccc4)cc3P(C)(C)=O)n2)c(OC)cc1N1CCC(N2CCN(C)CC2)CC1 [Compound 1] | 2.2 nM | 935 nM | 0.5 nM | 91.5 nM | 171 nM | 10.3 nM | – |
| CCc1cc(Nc2ncc(Br)c(Nc3ccc(-c4ccccc4)c(C)c3P(C)(C)=O)n2)c(OC)cc1N1CCC(N2CCN(C)CC2)CC1 [Compound K-050, (4-((5-Bromo-2-((5-ethyl-2-methoxy-4-(4-(4-methylpiperazin-1-yl)piperidin-1-yl)phenyl)amino)pyrimidin-4-yl)amino)-2-methyl-[1,1′-biphenyl]-3-yl)dimethylphosphine oxide] | 20.6 nM | 1030 nM | 1.1 nM | 121 nM | 218 nM | 12.3 nM | – |
| CCc1cc(Nc2ncc(Br)c(Nc3ccc(-c4cnn(C)c4)cc3P(C)(C)=O)n2)c(OC)cc1N1CCC(N(C)C)CC1 [Compound K-044, (2-((5-Bromo-2-((4-(4-(dimethylamino)piperidin-1-yl)-5-ethyl-2-methoxyphenyl)amino)pyrimidin-4-yl)amino)-5-(1-methyl-1H-pyrazol-4-yl)phenyl)dimethylphosphine oxide] | 3.8 nM | 280 nM | 0.3 nM | 38.2 nM | 166 nM | 8.2 nM | – |
| COc1cc(Nc2ncc(Br)c(Nc3ccc(-c4cnn(C)n4)c(F)c3P(C)(C)=O)n2)c(C)cc1N1CCOCC1 [Compound K-025, (6-((5-Bromo-2-((5-methoxy-2-methyl-4-morpholinophenyl)amino)pyrimidin-4-yl)amino)-2-fluoro-3-(2-methyl-2H-1,2,3-triazol-4-yl)phenyl)dimethylphosphine oxide] | 12.6 nM | > 10000 nM | 0.23 nM | 69 nM | 220 nM | 39 nM | – |
| COc1cc(Nc2ncc(Br)c(Nc3ccc(-c4nccs4)cc3P(C)(C)=O)n2)c(C)cc1N1CCOCC1 [Compound K-024, (2-((5-Bromo-2-((5-methoxy-2-methyl-4-morpholinophenyl)amino)pyrimidin-4-yl)amino)-5-(thiazol-2-yl)phenyl)dimethylphosphine oxide] | 15.6 nM | 601 nM | 0.3 nM | 71.1 nM | 172 nM | 35 nM | – |
| CCc1cc(Nc2ncc(Br)c(Nc3ccc(-c4ccccc4C)cc3P(C)(C)=O)n2)c(OC)cc1N1CCC(N2CCOCC2)CC1 [Compound K-049, (4-((5-Bromo-2-((5-ethyl-2-methoxy-4-(4-morpholinopiperidin-1-yl)phenyl)amino)pyrimidin-4-yl)amino)-2′-methyl-[1,1′-biphenyl]-3-yl)dimethylphosphine oxide] | 38.4 nM | 1470 nM | 0.8 nM | 432 nM | 373 nM | 31.7 nM | – |

Now from value to molecule:

| GI50 [1] | IC50 (A431; Homo sapiens, A-431, 72 h) | IC50 (EGFRΔ19del/T790M/C797S) | IC50 (IGF1R) | GI50 [2] | IC50 (EGFR WT) | IC50 (A431) | Compound |
| --- | --- | --- | --- | --- | --- | --- | --- |
| 7.2 nM | 693 nM | 0.4 nM | 46 nM | 52.8 nM | 17 nM | – | C#Cc1cnc(-c2ccc(Nc3nc(Nc4cc(CC)c(N5CCC(N6CCN(C)CC6)CC5)cc4OC)ncc3Br)c(P(C)(C)=O)c2)cn1 [Compound K-010, (2-((5-Bromo-2-((5-ethyl-2-methoxy-4-(4-(4-methylpiperazin-1-yl)piperidin-1-yl)phenyl)amino)pyrimidin-4-yl)amino)-5-(5-ethynylpyrazin-2-yl)phenyl)dimethylphosphine oxide] |
| 14.6 nM | > 10000 nM | 0.3 nM | 170 nM | 285 nM | 31 nM | – | COc1cnn(-c2ccc(Nc3nc(Nc4cc(C)c(N5CCN(C6CCN(C)CC6)CC5)cc4OC)ncc3Br)c(P(C)(C)=O)c2)c1 [Compound K-088] |
| 9.2 nM | 1130 nM | 0.3 nM | 126 nM | 226 nM | 22 nM | – | CCc1cc(Nc2ncc(Br)c(Nc3ccc(-n4cc(OC)cn4)cc3P(C)(C)=O)n2)c(OC)cc1N1CCC(N2CCCCC2)CC1 [Compound K-020] |
| 18.4 nM | 2320 nM | 0.3 nM | 202 nM | 467 nM | 28.2 nM | – | CCc1cc(Nc2ncc(Br)c(Nc3ccc(-n4cc(COC)cn4)cc3P(C)(C)=O)n2)c(OC)cc1N1CCC(N2CCN(C)CC2)CC1 [Compound K-090] |
| 27.5 nM | > 10000 nM | 0.1 nM | 45.6 nM | 523 nM | 14.3 nM | – | COc1cnn(-c2ccc(Nc3nc(Nc4cc(OC)c(N5CCC(O)CC5)cc4C)ncc3Br)c(P(C)(C)=O)c2)c1 [Compound K-039, (2-((5-Bromo-2-((4-(4-hydroxypiperidin-1-yl)-5-methoxy-2-methylphenyl)amino)pyrimidin-4-yl)amino)-5-(4-methoxy-1H-pyrazol-1-yl)phenyl)dimethylphosphine oxide] |
| 15.2 nM | 1420 nM | 0.3 nM | 166 nM | 70 nM | 22.1 nM | – | C#Cc1cncc(-c2ccc(Nc3nc(Nc4cc(CC)c(N5CCC(N6CCN(C)CC6)CC5)cc4OC)ncc3Br)c(P(C)(C)=O)c2)n1 [Compound K-013, (2-((5-Bromo-2-((5-ethyl-2-methoxy-4-(4-(4-methylpiperazin-1-yl)piperidin-1-yl)phenyl)amino)pyrimidin-4-yl)amino)-5-(6-ethynylpyrazin-2-yl)phenyl)dimethylphosphine oxide] |
| 13.5 nM | 962 nM | 0.3 nM | 177 nM | 437 nM | 27.3 nM | – | CCc1cc(Nc2ncc(Br)c(Nc3ccc(-c4ccc(C)nn4)cc3P(C)(C)=O)n2)c(OC)cc1N1CCC(N2CCN(C)CC2)CC1 [Compound 33, (2-((5-Bromo-2-((5-ethyl-2-methoxy-4-(4-(4-methylpiperazin-1-yl)piperidin-1-yl)phenyl)amino)pyrimidin-4-yl)amino)-5-(6-methylpyridazin-3-yl)phenyl)dimethylphosphine oxide] |
| 9.7 nM | 1060 nM | 0.2 nM | 67.2 nM | 295 nM | 17.1 nM | – | COc1cnn(-c2ccc(Nc3nc(Nc4cc(OC)c(N5CCC(N6CCN(C)CC6)CC5)cc4C)ncc3Br)c(P(C)(C)=O)c2)c1 [Compound K-018, (2-((5-Bromo-2-((5-methoxy-2-methyl-4-(4-(4-methylpiperazin-1-yl)piperidin-1-yl)phenyl)amino)pyrimidin-4-yl)amino)-5-(4-methoxy-1H-pyrazol-1-yl)phenyl)dimethylphosphine oxide] |
| 23.9 nM | 1800 nM | 0.2 nM | 126 nM | 459 nM | 18 nM | – | CCc1cc(Nc2ncc(Br)c(Nc3ccc(-c4cnn(CC)n4)cc3P(C)(C)=O)n2)c(OC)cc1N1CCC(N2CCN(C)CC2)CC1 [Compound K-062, (2-((5-Bromo-2-((5-ethyl-2-methoxy-4-(4-(4-methylpiperazin-1-yl)piperidin-1-yl)phenyl)amino)pyrimidin-4-yl)amino)-5-(2-ethyl-2H-1,2,3-triazol-4-yl)phenyl)dimethylphosphine oxide] |
| 21 nM | – | 0.3 nM | 180 nM | 218 nM | 29.4 nM | 2540 nM | CCc1cc(Nc2ncc(Br)c(Nc3ccc(-c4ccc(C)cn4)cc3P(C)(C)=O)n2)c(OC)cc1N1CCC(N2CCN(C)CC2)CC1 [Compound K-071, (2-((5-Bromo-2-((5-ethyl-2-methoxy-4-(4-(4-methylpiperazin-1-yl)piperidin-1-yl)phenyl)amino)pyrimidin-4-yl)amino)-5-(5-methylpyridin-2-yl)phenyl)dimethylphosphine oxide] |

— patent publication US20220402948A1, “EGFR INHIBITOR, COMPOSITION AND PREPARATION METHOD THEREFOR” (BETTA PHARMACEUTICALS CO., LTD., priority 2019, published 2022)
